Data: paper PMC8500670, “A selective WDR5 degrader inhibits acute myeloid leukemia in patient-derived mouse models” (Science translational medicine, 2021)

Columns and labels:
Assay in all cases: biochemical
Design in all cases: GPCR, ion channel and transporter panel, per cent inhibition of binding, mean of four
[1] = target: T1, D4 (Homo sapiens, UniProt P21917)
T1 construct: gene DRD4
Protocol: (§1) We next assessed selectivity of MS67 against 22 protein methyltransferases (table S2) and a broad panel of common drug targets including 45 kinases (table S3) and 44 G protein–coupled receptors (GPCR), ion channels, and transporters (table S4). […] We subsequently determined that MS67 had moderate binding affinity (Ki = 1.0 ± 0.8 μM) to Sigma 2 receptor (fig. S10).

[2] = target: T2, Sigma 2 (Homo sapiens, UniProt Q5BJF2)
T2 construct: gene TMEM97
Protocol: as §1

[3] = target: T3, Beta2 (Homo sapiens, UniProt P07550)
T3 construct: gene ADRB2
T3 sequence (P07550 whole entry): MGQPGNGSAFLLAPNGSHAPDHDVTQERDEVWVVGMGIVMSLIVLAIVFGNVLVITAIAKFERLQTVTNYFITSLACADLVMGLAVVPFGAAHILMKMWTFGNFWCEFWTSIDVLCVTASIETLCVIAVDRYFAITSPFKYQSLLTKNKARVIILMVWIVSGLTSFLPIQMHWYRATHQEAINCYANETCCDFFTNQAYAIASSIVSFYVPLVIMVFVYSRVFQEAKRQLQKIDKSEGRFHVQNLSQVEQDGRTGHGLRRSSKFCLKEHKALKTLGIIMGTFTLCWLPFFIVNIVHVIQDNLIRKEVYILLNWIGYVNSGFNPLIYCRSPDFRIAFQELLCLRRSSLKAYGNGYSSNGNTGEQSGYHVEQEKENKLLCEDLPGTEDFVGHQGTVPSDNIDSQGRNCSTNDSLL
Protocol: as §1

[4] = target: T4, 5-HT2C (Homo sapiens, UniProt P28335)
T4 construct: gene HTR2C
Protocol: as §1

[5] = target: T5, H2 (Homo sapiens, UniProt P25021)
T5 construct: gene HRH2
T5 sequence (P25021 whole entry): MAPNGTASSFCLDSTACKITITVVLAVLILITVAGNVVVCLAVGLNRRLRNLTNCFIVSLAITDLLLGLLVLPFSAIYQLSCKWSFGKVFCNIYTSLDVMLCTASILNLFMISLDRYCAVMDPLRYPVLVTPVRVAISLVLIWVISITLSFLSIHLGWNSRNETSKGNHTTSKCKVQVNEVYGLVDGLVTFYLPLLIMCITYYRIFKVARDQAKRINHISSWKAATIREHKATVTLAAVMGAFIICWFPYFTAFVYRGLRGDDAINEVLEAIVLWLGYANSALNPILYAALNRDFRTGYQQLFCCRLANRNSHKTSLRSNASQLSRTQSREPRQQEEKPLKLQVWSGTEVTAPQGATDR
Protocol: as §1

[6] = target: T6, Alpha1D (Homo sapiens, UniProt P25100)
T6 construct: gene ADRA1D
Protocol: as §1

[7] = target: T7, H1 (Homo sapiens, UniProt P35367)
T7 construct: gene HRH1
T7 sequence (P35367 whole entry): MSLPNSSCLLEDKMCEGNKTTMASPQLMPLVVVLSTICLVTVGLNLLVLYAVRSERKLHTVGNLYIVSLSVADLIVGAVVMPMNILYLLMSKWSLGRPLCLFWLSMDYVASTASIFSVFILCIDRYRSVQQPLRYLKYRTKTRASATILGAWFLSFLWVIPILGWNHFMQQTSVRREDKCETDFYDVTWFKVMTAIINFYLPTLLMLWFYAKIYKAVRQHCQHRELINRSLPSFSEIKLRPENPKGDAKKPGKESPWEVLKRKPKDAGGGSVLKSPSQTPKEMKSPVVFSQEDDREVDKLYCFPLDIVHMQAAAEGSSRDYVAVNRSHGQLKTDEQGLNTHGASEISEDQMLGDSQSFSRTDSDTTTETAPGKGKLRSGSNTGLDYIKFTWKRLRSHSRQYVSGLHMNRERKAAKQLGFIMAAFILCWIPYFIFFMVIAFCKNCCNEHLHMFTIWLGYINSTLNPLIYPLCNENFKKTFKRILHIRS
Protocol: as §1

[8] = target: T8, Beta1 (Homo sapiens, UniProt P08588)
T8 construct: gene ADRB1
Protocol: as §1

[9] = target: T9, M5 (Homo sapiens, UniProt P08912)
T9 construct: gene CHRM5
Protocol: as §1

[10] = target: T10, 5-HT1D (Homo sapiens, UniProt P28221)
T10 construct: gene HTR1D
Protocol: as §1

[11] = target: T11, Sigma 1 (Homo sapiens, UniProt Q99720)
T11 construct: gene SIGMAR1
Protocol: as §1

[12] = target: T12, Alpha2A (Homo sapiens, UniProt P08913)
T12 construct: gene ADRA2A
T12 sequence (P08913 whole entry): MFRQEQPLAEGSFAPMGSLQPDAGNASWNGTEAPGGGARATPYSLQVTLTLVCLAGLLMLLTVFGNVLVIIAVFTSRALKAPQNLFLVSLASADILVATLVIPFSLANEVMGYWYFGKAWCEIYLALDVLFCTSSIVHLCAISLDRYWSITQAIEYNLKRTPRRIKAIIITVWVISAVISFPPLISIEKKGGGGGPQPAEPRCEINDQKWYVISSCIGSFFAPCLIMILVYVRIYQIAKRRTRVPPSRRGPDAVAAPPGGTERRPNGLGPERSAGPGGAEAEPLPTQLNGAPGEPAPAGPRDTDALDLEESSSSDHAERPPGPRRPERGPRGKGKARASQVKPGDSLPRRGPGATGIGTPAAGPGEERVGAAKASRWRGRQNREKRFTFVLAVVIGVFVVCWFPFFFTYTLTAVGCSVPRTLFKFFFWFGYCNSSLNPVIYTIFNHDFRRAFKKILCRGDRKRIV
Protocol: as §1

[13] = target: T13, Alpha1A (Homo sapiens, UniProt P35348)
T13 construct: gene ADRA1A
Protocol: as §1

[14] = target: T14, 5-HT2B (Homo sapiens, UniProt P41595)
T14 construct: gene HTR2B
T14 sequence (P41595 whole entry): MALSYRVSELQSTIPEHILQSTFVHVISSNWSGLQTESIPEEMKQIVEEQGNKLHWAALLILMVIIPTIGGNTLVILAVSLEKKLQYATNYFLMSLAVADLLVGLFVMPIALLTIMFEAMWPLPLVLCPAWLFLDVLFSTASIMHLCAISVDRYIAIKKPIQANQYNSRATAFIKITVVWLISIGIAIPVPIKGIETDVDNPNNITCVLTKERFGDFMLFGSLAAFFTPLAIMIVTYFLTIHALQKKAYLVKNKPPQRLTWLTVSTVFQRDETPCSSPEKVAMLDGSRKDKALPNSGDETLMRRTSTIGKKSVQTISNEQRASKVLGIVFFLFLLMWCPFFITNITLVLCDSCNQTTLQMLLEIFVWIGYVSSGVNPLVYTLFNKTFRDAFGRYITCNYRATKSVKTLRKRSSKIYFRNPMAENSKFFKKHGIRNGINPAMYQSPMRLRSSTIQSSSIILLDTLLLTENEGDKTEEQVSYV
Protocol: as §1

[15] = target: T15, M3 (Homo sapiens, UniProt P20309)
T15 construct: gene CHRM3
T15 sequence (P20309 whole entry): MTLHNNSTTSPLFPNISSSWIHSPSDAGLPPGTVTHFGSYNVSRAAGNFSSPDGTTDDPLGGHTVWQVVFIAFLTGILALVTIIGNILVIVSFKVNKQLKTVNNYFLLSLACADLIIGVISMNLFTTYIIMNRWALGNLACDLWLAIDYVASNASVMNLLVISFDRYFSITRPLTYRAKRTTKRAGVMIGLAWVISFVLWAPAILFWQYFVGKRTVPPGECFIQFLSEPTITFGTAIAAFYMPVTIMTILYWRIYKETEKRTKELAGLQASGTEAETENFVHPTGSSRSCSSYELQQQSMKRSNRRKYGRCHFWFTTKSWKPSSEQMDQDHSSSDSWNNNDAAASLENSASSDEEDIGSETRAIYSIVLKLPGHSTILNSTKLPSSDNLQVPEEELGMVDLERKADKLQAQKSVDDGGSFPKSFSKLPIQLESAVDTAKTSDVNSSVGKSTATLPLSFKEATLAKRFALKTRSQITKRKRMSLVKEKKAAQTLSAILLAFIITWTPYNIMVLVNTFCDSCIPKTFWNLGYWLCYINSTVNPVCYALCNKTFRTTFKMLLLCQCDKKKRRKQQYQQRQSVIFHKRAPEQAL
Protocol: as §1

[16] = target: T16, KOR (Homo sapiens, UniProt P41145)
T16 construct: gene OPRK1
Protocol: as §1

[17] = target: T17, 5-HT1E (Homo sapiens, UniProt P28566)
T17 construct: gene HTR1E
Protocol: as §1

[18] = target: T18, Alpha2B (Homo sapiens, UniProt P18089)
T18 construct: gene ADRA2B
Protocol: as §1

[19] = target: T19, D1 (Homo sapiens, UniProt P21728)
T19 construct: gene DRD1
Protocol: as §1

[20] = target: T20, Beta3 (Homo sapiens, UniProt P13945)
T20 construct: gene ADRB3
Protocol: as §1

[21] = target: T21, 5-HT5A (Homo sapiens, UniProt P47898)
T21 construct: gene HTR5A
T21 sequence (P47898 whole entry): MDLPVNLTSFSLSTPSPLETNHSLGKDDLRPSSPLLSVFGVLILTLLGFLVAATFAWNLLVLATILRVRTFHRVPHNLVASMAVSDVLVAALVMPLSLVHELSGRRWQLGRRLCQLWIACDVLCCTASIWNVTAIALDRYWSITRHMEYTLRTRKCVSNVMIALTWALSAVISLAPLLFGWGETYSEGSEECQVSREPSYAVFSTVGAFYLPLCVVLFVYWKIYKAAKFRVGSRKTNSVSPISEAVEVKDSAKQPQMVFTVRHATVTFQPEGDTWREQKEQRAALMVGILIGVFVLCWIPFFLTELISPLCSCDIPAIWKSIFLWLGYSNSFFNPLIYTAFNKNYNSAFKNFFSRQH
Protocol: as §1

[22] = target: T22, 5-HT3 (Homo sapiens, UniProt P46098)
T22 construct: gene HTR3A
Protocol: as §1

[23] = target: T23, Alpha1B (Homo sapiens, UniProt P35368)
T23 construct: gene ADRA1B
T23 sequence (P35368 whole entry): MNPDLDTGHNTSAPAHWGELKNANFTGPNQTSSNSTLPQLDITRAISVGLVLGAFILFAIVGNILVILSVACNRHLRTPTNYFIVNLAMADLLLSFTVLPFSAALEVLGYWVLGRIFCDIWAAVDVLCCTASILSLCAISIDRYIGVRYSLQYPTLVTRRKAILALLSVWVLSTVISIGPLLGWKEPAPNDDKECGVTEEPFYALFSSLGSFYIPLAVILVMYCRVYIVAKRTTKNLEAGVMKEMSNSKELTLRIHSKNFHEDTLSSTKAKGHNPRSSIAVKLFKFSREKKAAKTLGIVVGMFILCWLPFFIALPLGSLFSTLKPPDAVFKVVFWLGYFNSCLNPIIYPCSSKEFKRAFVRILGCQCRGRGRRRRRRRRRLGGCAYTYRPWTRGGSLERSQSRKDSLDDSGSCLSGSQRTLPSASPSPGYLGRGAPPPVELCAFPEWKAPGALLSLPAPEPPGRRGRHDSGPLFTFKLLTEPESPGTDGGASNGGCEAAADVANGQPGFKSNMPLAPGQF
Protocol: as §1

[24] = target: T24, D2 (Homo sapiens, UniProt P14416)
T24 construct: gene DRD2
T24 sequence (P14416 whole entry): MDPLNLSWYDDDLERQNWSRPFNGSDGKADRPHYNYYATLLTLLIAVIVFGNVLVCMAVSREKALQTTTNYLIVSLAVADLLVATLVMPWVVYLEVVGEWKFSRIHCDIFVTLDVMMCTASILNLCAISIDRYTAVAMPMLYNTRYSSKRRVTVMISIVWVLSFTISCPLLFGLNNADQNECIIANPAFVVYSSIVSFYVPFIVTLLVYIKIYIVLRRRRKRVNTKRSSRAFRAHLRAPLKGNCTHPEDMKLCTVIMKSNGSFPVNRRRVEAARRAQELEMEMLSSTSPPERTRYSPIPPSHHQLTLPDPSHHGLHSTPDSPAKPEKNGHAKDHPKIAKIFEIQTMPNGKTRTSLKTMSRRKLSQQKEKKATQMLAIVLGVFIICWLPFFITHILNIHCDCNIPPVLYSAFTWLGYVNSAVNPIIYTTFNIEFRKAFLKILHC
Protocol: as §1

[25] = target: T25, D3 (Homo sapiens, UniProt P35462)
T25 construct: gene DRD3
T25 sequence (P35462 whole entry): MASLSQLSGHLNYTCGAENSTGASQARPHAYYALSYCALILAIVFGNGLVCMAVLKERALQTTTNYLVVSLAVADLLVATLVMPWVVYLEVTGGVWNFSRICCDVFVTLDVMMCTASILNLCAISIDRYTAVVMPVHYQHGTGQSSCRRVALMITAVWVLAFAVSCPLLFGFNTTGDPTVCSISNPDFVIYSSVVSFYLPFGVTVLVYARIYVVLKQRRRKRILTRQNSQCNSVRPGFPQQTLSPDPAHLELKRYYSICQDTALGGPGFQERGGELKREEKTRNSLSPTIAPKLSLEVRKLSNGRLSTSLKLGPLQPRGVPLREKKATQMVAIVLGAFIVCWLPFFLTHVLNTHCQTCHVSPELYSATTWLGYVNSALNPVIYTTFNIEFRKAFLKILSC
Protocol: as §1

T1 sequence (P21917 whole entry): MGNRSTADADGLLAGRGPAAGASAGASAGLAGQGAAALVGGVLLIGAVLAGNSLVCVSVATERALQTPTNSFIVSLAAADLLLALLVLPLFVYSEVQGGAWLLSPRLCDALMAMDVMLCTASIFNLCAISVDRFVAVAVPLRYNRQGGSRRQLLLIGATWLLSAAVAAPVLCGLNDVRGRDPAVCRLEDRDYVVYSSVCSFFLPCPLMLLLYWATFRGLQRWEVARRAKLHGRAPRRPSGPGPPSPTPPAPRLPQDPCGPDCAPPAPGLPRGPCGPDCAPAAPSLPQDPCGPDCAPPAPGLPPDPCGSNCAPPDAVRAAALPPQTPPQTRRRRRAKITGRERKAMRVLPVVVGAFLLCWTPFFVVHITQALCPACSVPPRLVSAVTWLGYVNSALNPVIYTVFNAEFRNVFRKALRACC

For `Cc1ncsc1-c1ccc([C@H](C)NC(=O)[C@@H]2C[C@@H](O)CN2C(=O)[C@@H](NC(=O)CNC(=O)c2ccc(F)c(-c3ccc(N4C[C@@H](C)N(C)[C@@H](C)C4)c(NC(=O)c4c[nH]c(=O)cc4C(F)(F)F)c3)c2)C(C)(C)C)cc1` [MS67], the inhibition at 1 µM [1] was 5.81%, the inhibition at 1 µM [2] was 66.6% and the inhibition at 1 µM [3] was -23%. It also gave an inhibition at 1 µM [4] of 3.09%, an inhibition at 1 µM [5] of 19.7% and an inhibition at 1 µM [6] of 28.5%. For the same molecule, the inhibition at 1 µM [7] was 15.9%, the inhibition at 1 µM [8] was 16.9% and the inhibition at 1 µM [9] was 2.36%. For the same molecule, the inhibition at 1 µM [10] was 41.7%, the inhibition at 1 µM [11] was 48.8% and the inhibition at 1 µM [12] was 21.3%. The inhibition at 1 µM [13] was 24.4%, the inhibition at 1 µM [14] was 9.31% and the inhibition at 1 µM [15] was 23.9%. The inhibition at 1 µM [16] was 26.3%, the inhibition at 1 µM [17] was 0.02% and the inhibition at 1 µM [18] was 21.1%. The inhibition at 1 µM [19] was 18.7%, the inhibition at 1 µM [20] was 32% and the inhibition at 1 µM [21] was 36.6%. The inhibition at 1 µM [22] was 26.6%, the inhibition at 1 µM [23] was 27.6% and the inhibition at 1 µM [24] was 25.5%. The inhibition at 1 µM [25] was 22.9%.
